Assay results reported in patent US7098372B1, “Pharmaceutical compositions and methods of using secreted frizzled related protein” (Wyeth, priority 1999, dated 2006).

T1: PTH-1 receptor (Homo sapiens, UniProt Q03431)
T1 construct: the hOB-01-C1-PS-09 cell line was selected for further characterization based on its high-level of PTH-1 receptor mRNA expression; endogenous in cells; host or cells: hOB-01-C1-PS-09 cells (ATCC PTA-785)
T1 sequence (Q03431 27-593): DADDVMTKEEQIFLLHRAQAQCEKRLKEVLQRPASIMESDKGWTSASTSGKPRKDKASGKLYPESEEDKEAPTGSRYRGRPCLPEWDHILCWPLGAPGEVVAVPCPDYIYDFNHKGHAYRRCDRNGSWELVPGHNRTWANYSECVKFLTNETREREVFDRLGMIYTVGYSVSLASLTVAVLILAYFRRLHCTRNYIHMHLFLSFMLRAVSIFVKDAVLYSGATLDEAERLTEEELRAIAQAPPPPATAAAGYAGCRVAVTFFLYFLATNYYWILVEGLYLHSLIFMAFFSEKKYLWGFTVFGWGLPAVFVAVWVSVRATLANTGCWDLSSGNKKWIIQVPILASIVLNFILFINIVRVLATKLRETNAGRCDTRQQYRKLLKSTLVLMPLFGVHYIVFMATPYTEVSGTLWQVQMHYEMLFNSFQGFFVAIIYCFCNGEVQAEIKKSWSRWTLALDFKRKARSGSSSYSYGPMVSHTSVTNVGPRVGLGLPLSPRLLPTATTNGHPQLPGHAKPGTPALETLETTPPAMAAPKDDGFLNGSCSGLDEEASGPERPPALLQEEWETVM


Columns and labels:
hOB SFRP mRNA [1] = assay: Northern blot analysis of hOB SFRP mRNA expression; type: cell-based, human
Source text: The hOB SFRP gene fragment was identified using RADE (rapid analysis of differential expression) technology as described by Shiue 1997 Drug Develop. Res. 41: 142–159, the whole of which is incorporated herein. Three hOB cell lines (hOB-03-C5, hOB-03-CE6 and hOB-01-C1), representing three distinct stages of differentiation (proliferative, mature and preosteocytic, respectively) were used to isolate and identify SFRP. The hOB cell lines were established and cultured as previously described (Bodine et al. 1996 J. Bone Miner. Res. 11: 806–819; Bodine et al. 1996 Endocrinology 137: 4592–4604; Bodine et al. 1997 J. Cell. Biochem. 65: 368–387). […] However, in contrast to osteosarcoma cells (Stein and Lian 1993 Endocrine Rev. 14: 424–442), the hOB cell lines were faithful to the proliferation/differentiation relationship at the nonpermissive temperature (>37° C.) when the T-antigen mutant is inactivated. The cell lines were seeded into 150 mm dishes at ˜40,000 cells/cm^2 with growth medium [D-MEM/F-12 containing 10% (v/v) heat-inactivated fetal bovine serum (FBS), 1% (v/v) Penicillin-Streptomycin and 2 mM GlutaMAX-1] and incubated overnight at 34° C. The next day, the medium was removed, the cells were rinsed with phosphate-buffered saline (PBS), 20 ml of serum-free medium was added to the dishes [phenol red-free D-MEM/F-12 (Gibco/BRL) containing 0.25% (w/v) bovine serum albumin (BSA, Pentex crystallized, Bayer), 1% (v/v) Penicillin-Streptomycin, 2 mM GlutaMAX-1, […] ascorbate-2-phosphate (Wako), and 10 nM menadione sodium bisulfite (vitamin K3)], and the dishes were incubated at 39° C. for 24 hr. The next day, the medium was removed and the cells were treated at 39° C. for an additional 24 hr with 20 ml of fresh serum-free medium containing either vehicle (Control), 8 nM human parathyroid hormone 1–34 (PTH), 100 nM prostaglandin E2 (PGE2) or 0.1 nM human transforming growth factor-β1 (TGF-β1). PTH, PGE2 and TGF-β1 are known osteogenic agents (Whitfield and Morley 1995 Trends Pharmaceut. Sci. 16:382–386; Jee and Ma 1997 Bone 21:297–304; Centrella et al. 1994 Endocrine Rev. 15:27–39). After the treatment period, the dishes were rinsed with PBS and total cellular RNA was isolated from the nontreated and treated cells using TRIzol according to the manufacturers instructions (GibcoBRL). RADE was then performed with the isolated RNA samples as above; the regulated gene fragments were identified, cloned and sequenced. These experiments identified a total of 82 differentially expressed genes. A BLAST (basic local alignment search tool) search of the public data bases was performed on the RADE-obtained gene fragments; one of the gene fragments was highly homologous to mouse SFRP-1. This gene fragment was identified during RADE using the following primer pair: 5′-[…]-3′ (HT11A)3′ end (reverse primer) and 5′-[…]-3′ (H-AP1) 5′ end (forward primer), which sequences are SEQ ID NO 11 and SEQ ID NO 12, respectively. The expression and regulation of the gene fragment having homology to mouse cDNA SFRP-1 was confirmed by Northern blot analysis.
In order to confirm the regulation of hOB SFRP gene expression by different osteogenic agents (i.e., the DNA fragment identified in Example 1, above), the hOB cell lines were treated with PTH, PGE2, and TGF-β1; RNA was then isolated for Northern hybridizations. The experiments were performed as follows. The hOB cell lines were seeded into 150 mm dishes and treated as described in Example 1, except that polyA+ RNA was isolated from total cellular RNA using Oligotex mRNA maxi kits as described by the manufacturer (Qiagen). Northern blot analysis was performed using either the excised RADE hOB SFRP gene fragment, the cloned hOB SFRP gene fragment or the cloned full-length hOB SFRP cDNA as a ^32P-labeled probe (as described in Bodine et al. 1996 J. Bone Miner. Res. 11: 806–819, which is incorporated herein). Each of these probes detected a 4.4–4.6 kb message in the hOB cells. […]

hOB SFRP mRNA [2] = assay: hOB SFRP mRNA levels after treatment with various agents (method not given); type: cell-based, human; details: various hOB cell lines
PTH-1 receptor = target: T1, PTH-1 receptor; assay: Intracellular cAMP assay in hOB-01-C1-PS-09 cells; type: cell-based; details: preincubation at 34° C.
Experimental: As mentioned above, the hOB-01-C1-PS-09 cell line was selected for further characterization based on its high-level of PTH-1 receptor mRNA expression. […] Consistent with this enhanced PTH-1 receptor expression, […] increasing concentrations of human PTH 1–34 (hPTH 1–34) for 10 min at 37° C. generates a dose-dependent 5- to 6-fold increase in intracellular cyclic-adenosine monophosphate (cAMP) levels (FIG. 24). […] Thus, both PTH-1 receptor expression and responsiveness are enhanced following inactivation of the tsA-209 T-antigen. One potential utility for this cAMP assay would be the ability to characterize the activities of PTH-analogs or -mimetics in an important target cell under conditions where levels of PTH-1 receptor expression are dramatically altered.

Wnt signaling = assay: TCF-luciferase reporter gene assay of Wnt signaling; type: cell-based, human; details: transfected cDNA, hOB-01-C1-PS-09 or hOB-02-C1-PS-02 cells
Experimental: SARP-2 or human Frzb-1 expression plasmids downregulates Wnt signaling (when compared to the pcDNA3.1 empty vector control) in the hOB cells as measured by the TCF-luciferase reporter gene assay. This assay is an authentic measurement of Wnt signaling and β-catenin nuclear activity.
In order to determine if the up-regulation of SFRP-1/FRP-1/SARP-2 gene expression results in an antagonism of the Wnt signaling pathway, hOB-03-CE6 cells were treated with PGE2 and the resulting cells probed with β-catenin monoclonal antibody. Overexpression of Wnt proteins in cells up-regulates a signaling protein known as β-catenin (reviewed in Moon et al. 1997 Cell 88: 725–728; Barth et al. 1997 Curr. Opin. Cell Biol. 9: 683–690; and Nusse 1997 Cell 89: 321–323). […] Therefore, hOB-03-CE6 cells were plated and treated with PGE2 as described in Example 1, except that total cellular protein was extracted and a Western blot analysis for β-catenin was performed using a monoclonal antibody to the protein (Transduction Laboratories) as previously described (Bodine et al. 1996 Endocrinology 137: 4592–4604; Melkonyan et al. 1997 Proc. Natl. Acad. Sci. USA 94: 13636–13641). […] Both human and rat SFRP-1/FRP-1/SARP-2, as well as human Frzb-1/FrzB/Fritz, suppressed TCF-luciferase activity in the hOB cells.

hOB-01-C1-PS-09 cells = assay: Cell viability of hOB-01-C1-PS-09 cells stably transfected with hOB SFRP cDNA; type: cell-based, human; details: stably transfected hOB-01-C1-PS-09 cells
Source text: For these experiments, the cells were stably transfected with either an hOB SFRP cDNA (i.e., SFRP-1/FRP-1/SARP-2) mammalian expression plasmid or the empty vector (i.e., pcDNA3.1). The results are presented as the % of the day 0 control cells.
For these experiments, the cells were stably transfected with either an hOB SFRP cDNA (i.e., SFRP-1/FRP-1/SARP-2) mammalian expression plasmid or the empty vector (i.e., pcDNA3.1, which is obtained from Invitrogen of Carlsbad, Calif.). Standard cloning technigues were used (See Ausubel et al. 1997 Short Protocols in M<olecular Biology, 3rd edition, Wiley {New York}). The results are presented as the % of the day 0 control cells.

Row | increase in cAMP concentrations (PTH-1 receptor) | TCF-luciferase activity (Wnt signaling) | Molecule | regulation of SFRP mRNA (hOB SFRP mRNA [1]; SaOS-2 human osteosarcoma cells, 24 hr, 37° C.) | suppression of basal hOB SFRP expression (hOB SFRP mRNA [1]; hOB-01-C1 cells, 8 nM) [%] | effect on hOB SFRP message expression (hOB SFRP mRNA [2]) | rate of cell death on overexpression versus empty vector (hOB-01-C1-PS-09 cells)
1 | does not result in a subsequent increase |  | human parathyroid hormone 1–34 [PTH] | not regulated | 35 | suppresses | 
2 |  | suppressed | SFRP-1/FRP-1/SARP-2: human osteoblast secreted frizzled related protein, SEQ ID NO 2, expressed from transfected cDNA in pcDNA3.1 (protein, listed as Homo sapiens) MGIGRSEGGRRGAALGVLLALGAALLAVGSASEYDYVSFQSDIGPYQSGRFYTKPPQCVDIPADLRLCHNVGYKKMVLPNLLEHETMAEVKQQASSWVPLLNKNCHAGTQVFLCSLFAPVCLDRPIYPCRWLCEAVRDSCEPVMQFFGFYWPEMLKCDKFPEGDVCIAMTPPNATEASKPQGTTVCPPCDNELKSEAIIEHLCASEFALRMKIKEVKKENGDKKIVPKKKKPLKLGPIKKKDLKKLVLYLKNGADCPCHQLDNLSHHFLIMGRKVKSQYLLTAIHKWDKKNKEFKNFMKKMKNHECPTFQSVFK |  |  |  | accelerates the rate of cell death
